Entries after “also recorded” stand apart in the source; their conditions may differ.
What was measured:
[1] = molecular target: T1, G protein-coupled estrogen receptor (GPER) (Homo sapiens, UniProt Q99527); assay: calcium mobilization assay in HL-60 cells (Indo-1AM); type: cell-based; details: triplicate runs on triplicate plates, read-out: EC50 (Ca^2+)
T1 construct: siRNA was used to knock-down expression of GPER; endogenous in cells; host or cells: HL-60 (human myelocytic leukemia) cells
Description: For the calcium mobilization studies, Human Myelocytic Leukemia (HL-60) cells were grown in phenol red free media containing 10% activated fetal bovine serum (FBS), 1% Pen-Strep, and 1% Glutamax. Cells were grown to no more than 1×10^6 cells/mL to prevent differentiation before being split. Prior to assay cells were transferred to phenol red free media containing charcoal-stripped FBS. On the day of the assay cells were centrifuged down at 16.4 G for 5 minutes and washed with 50:1 HBSS/HEPES. Cells were resuspended at 1×10^7 cells/mL in 50:1 HBSS/HEPES. To the resuspended cells, […] pluronic acid and 5 uM of fluorescent calcium indicator, Indo-1AM, were added. The dye solution was incubated for 0.5 hrs at room temperature with rocking. After 30 minutes cells were spun down, and resuspended in 50:1 HBSS/HEPES. Cells were placed on ice for at least 5 minutes and then resuspended in 8.5 mL of 50:1 HBSS/HEPES for agonism assays. For agonism assays 160 μL of cell suspension were added to a 96-well plate and were incubated at […] for 20 minutes in a FlexStation® 3 plate reader (Molecular Devices). Inside the plate reader, 40 μL of agonist were added to each well and excited with 350 nm and read at emissions of 405 nm and 490 nm.
Calcium mobilization signal was assessed with the use of 0.1% pluronic acid and 5 μM Indo-1AM, a ratiometric dye. The EC50 values were determined based upon triplicate runs on triplicate plates. […] Cyclic AMP formation through the Gi/o-pathway was monitored utilizing a homogenous time-resolved fluorescence assay purchased from CisBio. A triplicate was performed and an EC50 value was calculated. […] The EC50 values were determined based upon triplicate runs on a triplicate plates.

[2] = molecular target: T2, GPER (Homo sapiens, UniProt Q99527); assay: cAMP competition study with selective GPER antagonist in HL-60 cells; type: cell-based; details: EC50 of G-36 plus 1 μM agonist, compared to agonist alone at 1 μM
T2 construct: siRNA was used to knock-down expression of GPER; endogenous in cells; host or cells: HL-60 (human myelocytic leukemia) cells
Description: In cAMP competition studies HL-60 cells were grown in 10% charcoal-stripped RPMI media for 72 hours prior to assays. Cells were centrifuged and counted with a hemocytometer from Hausser Scientific (Horsham, PA). The total number of cells needed to complete the assay was determined based upon 8,000 cells/well. The determined number of cells was diluted in 5:1 (5×) stimulation buffer contain 500 μM of 3-isobutyl-1-methylxanthine (IBMX) (Sigma Aldrich, Saint Louis, MO). […] Following the incubation period, 2 μL of various concentrations of compound (5×) were added. […] The plate was sealed and incubated at 37° C. for 10 minutes. After 10 minutes a 4:1 ratio of lysis buffer to donor/acceptor were individually prepared and 5 μL of lysis buffer/cAMP-d2 (acceptor) and 5 μL of lysis buffer/monocolonal anti-cAMP Eu3+ cryptate (donor) were added to all wells. The assay plate was sealed and incubated at room temperature for 30 minutes before being read at λex 314 nm and λem 665 nm/λem 620.

[3] = molecular target: T3, ERα (Homo sapiens, UniProt P03372); assay: ERα PolarScreen fluorescence polarization competitor assay; type: binding; details: duplicate
T3 construct: purchased Invitrogen (Carlsbad, CA)
T3 sequence (P03372 1-595): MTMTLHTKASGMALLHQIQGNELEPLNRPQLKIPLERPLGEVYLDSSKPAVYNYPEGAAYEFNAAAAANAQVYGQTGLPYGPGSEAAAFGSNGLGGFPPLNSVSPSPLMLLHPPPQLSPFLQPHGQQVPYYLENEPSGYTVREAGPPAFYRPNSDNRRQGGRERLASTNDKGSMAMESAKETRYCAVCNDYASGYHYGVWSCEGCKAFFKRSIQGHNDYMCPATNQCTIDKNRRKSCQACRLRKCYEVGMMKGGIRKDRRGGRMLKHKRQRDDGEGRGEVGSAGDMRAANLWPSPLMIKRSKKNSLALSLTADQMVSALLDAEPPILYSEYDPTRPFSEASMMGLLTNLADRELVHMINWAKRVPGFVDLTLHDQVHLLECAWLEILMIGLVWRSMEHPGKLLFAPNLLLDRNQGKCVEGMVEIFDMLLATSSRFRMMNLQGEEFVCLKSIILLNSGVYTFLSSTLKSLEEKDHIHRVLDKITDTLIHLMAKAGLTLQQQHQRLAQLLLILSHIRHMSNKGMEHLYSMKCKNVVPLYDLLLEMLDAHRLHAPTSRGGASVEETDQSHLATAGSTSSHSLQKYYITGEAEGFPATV
Description: (§1) FIGS. 3A & 3B show fluorescence polarization studies performed on classical estrogen receptors, ERα and ERβ, to determine off-target binding. Studies were performed in duplicate. […] Overall, it appears that compound 1 binds greater to ERβ than ERα and compound 2 binds to ERα but not ERβ.
(§2) The ERα and ERβ PolarScreen™ Competitor Assays by Invitrogen (Carlsbad, CA) were purchased and utilized to determine binding to the classical nuclear esetrogen recetors, ERα and ERβ. The concentrations of the ERα and ERβ enzyme varied between the two assays. A 4× sample of ERα was prepared for a final concentration of 75 nM. Conversely, a 4× sample of ERβ was prepared for a final concentration of 23 nM within the assay. For both ERα and ERβ a 4× aliquot of Fluoromone was prepared for a final assay concentration of 4.5 nM. Despite the differences in concentration of ERα and ERβ, the binding assay protocol for the two different enzymes remained the same. Drug dilutions were prepared for a 2× dilution in the ER specific buffer that was provided within the assay kit. In addition to the drug dilutions a 2× aliquot of Fluoromone was prepared by adding 10 uL of 4× with 10 uL of ER specific buffer. A 2× dilution of enzyme and fluorophore was achieved by adding equal portions of each to each other. […] The plate was incubated at RT for 2 hours before being read with λex 485 nm and λem 535 nm.

[4] = molecular target: T4, ERβ (Homo sapiens, UniProt Q92731); assay: ERβ PolarScreen fluorescence polarization competitor assay; type: binding; details: duplicate
T4 construct: purchased Invitrogen (Carlsbad, CA)
Description: as §1, §2

[5] = molecular target: T2, GPER; assay: calcium mobilization after siRNA knock down of GPER in HL-60 cells; type: cell-based; details: HL-60 cells not treated with siRNA; 1 μM
[6] = test system: E18 embryonic rat cortical neurons; assay: neurite outgrowth in E18 embryonic rat neurons; type: cell-based

T4 sequence (Q92731 whole entry): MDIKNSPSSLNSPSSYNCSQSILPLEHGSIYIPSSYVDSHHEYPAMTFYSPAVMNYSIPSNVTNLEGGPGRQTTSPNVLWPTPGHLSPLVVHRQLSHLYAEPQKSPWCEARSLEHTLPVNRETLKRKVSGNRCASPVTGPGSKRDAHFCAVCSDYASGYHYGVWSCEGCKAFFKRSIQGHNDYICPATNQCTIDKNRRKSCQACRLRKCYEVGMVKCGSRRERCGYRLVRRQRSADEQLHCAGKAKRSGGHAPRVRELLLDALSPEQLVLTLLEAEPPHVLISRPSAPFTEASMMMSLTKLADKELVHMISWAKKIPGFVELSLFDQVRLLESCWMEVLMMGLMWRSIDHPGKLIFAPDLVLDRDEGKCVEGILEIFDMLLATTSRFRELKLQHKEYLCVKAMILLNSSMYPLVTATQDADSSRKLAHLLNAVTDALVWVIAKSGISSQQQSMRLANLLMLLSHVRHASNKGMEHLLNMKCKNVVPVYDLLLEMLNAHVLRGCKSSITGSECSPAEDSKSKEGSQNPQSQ
T2 sequence (Q99527 whole entry): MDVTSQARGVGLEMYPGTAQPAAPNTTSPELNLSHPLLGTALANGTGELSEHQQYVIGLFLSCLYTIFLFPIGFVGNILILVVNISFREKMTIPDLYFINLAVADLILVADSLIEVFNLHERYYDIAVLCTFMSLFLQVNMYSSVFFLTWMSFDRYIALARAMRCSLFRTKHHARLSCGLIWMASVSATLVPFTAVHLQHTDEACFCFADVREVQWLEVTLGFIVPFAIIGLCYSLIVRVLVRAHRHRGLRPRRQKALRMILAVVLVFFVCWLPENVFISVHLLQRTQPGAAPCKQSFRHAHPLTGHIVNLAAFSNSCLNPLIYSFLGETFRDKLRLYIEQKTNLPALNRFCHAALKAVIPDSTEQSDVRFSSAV
T1 sequence (Q99527 whole entry): as above

Row | Structure (SMILES) | EC50 [1] [µM] | activation of adenylate cyclase and cAMP formation when challenged against G-36 [2] | binding to ERα [3] | binding to ERβ [4] | calcium compared to the vehicle control, no siRNA [5] | neurite outgrowth with GPER antagonist G-15 ([6]; 100 nM agonist plus 100 nM G-15) | neurite outgrowth ([6]; 100 nM agonist, 72 hours, compared to vehicle control)
1 | CC(C)c1ccc(NCc2ccc(CO)o2)c(C2CCCCC2)c1 [Compound 1] | 1.3 ± 0.322 | statistically significant reduction | exhibit binding; also recorded: significant binding | exhibit binding; also recorded: appeared to show binding | no statically significant difference |  | 
2 | CC(C)c1ccc(NCc2ccoc2)c(C2CCCCC2)c1 [Compound 2] | 0.699 ± 0.085 | statistically significant reduction | exhibit binding; also recorded: significant binding | exhibit binding; also recorded: binding trend for compound 2 was less consistent | no statically significant difference | reduction in signal | statistically significant increase

Reference: patent US12037327B2, “Compounds and methods targeting GPER for treatment of diseases associated with calcium” (Saint Louis University, priority 2018, dated 2024)
